# Assay results as given in ChEMBL document CHEMBL1201862, “PubChem BioAssay data set” (2004).
#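 How tested: cells in 96-well plates exposed to compound for 48 hours at five concentrations. The concentration for 50% growth inhibition is given as GI50.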 Activity calls are given as the source filed them. No stated cut-off is given here; in the data, active = GI50 up to about 1.1 µM and inactive = higher.
# How the values were obtained:
# Assay in all cases: NCI tumour cell line growth inhibition, 48 h
# HOP-18 = tested on: HOP-18
# HOP-92 = tested on: HOP-92
# SF-295 = tested on: SF-295
# SNB-75 = tested on: SNB-75
# EKVX = tested on: EKVX
# SF-268 = tested on: SF-268
# OVCAR-5 = tested on: OVCAR-5
# RPMI-8226 = tested on: RPMI-8226
# SR = tested on: SR
# LXFL 529 = tested on: LXFL 529
# HT-29 = tested on: HT-29
# DMS-273 = tested on: DMS-273
# 786-0 = tested on: 786-0
# ACHN = tested on: ACHN
# UACC-62 = tested on: UACC-62
# SNB-78 = tested on: SNB-78
# M14 = tested on: M14
# NCI-H522 = tested on: NCI-H522
# OVCAR-4 = tested on: OVCAR-4
Structure (SMILES),GI50 (HOP-18),GI50 (HOP-92),GI50 (SF-295),GI50 (SNB-75),GI50 (EKVX),GI50 (SF-268),GI50 (OVCAR-5),GI50 (RPMI-8226),GI50 (SR),GI50 (LXFL 529),GI50 (HT-29),GI50 (DMS-273),GI50 (786-0),GI50 (ACHN),GI50 (UACC-62),GI50 (SNB-78),GI50 (M14),GI50 (NCI-H522),GI50 (OVCAR-4)
Cc1cc2c(C)nn(Cc3ccc(Cl)cc3Cl)c2c(C#N)c1C,> 100 µM (inactive),35.9 µM (inactive),50.4 µM (inactive),89.9 µM (inactive),> 100 µM (inactive),> 100 µM (inactive),> 100 µM (inactive),> 100 µM (inactive),> 100 µM (inactive),82.4 µM (inactive),78.5 µM (inactive),> 100 µM (inactive),> 100 µM (inactive),> 100 µM (inactive),> 100 µM (inactive),> 100 µM (inactive),,,
COC(=O)[C@@]1(C(C)CC(=O)O)CCCCC1=O (stereo partly drawn),> 100 µM (inactive),> 100 µM (inactive),> 100 µM (inactive),> 100 µM (inactive),> 100 µM (inactive),> 100 µM (inactive),> 100 µM (inactive),34.3 µM (inactive),37.8 µM (inactive),> 100 µM (inactive),> 100 µM (inactive),19.9 µM (inactive),27 µM (inactive),> 100 µM (inactive),> 100 µM (inactive),> 100 µM (inactive),> 100 µM (inactive),> 100 µM (inactive),> 100 µM (inactive)
CN1C(=O)C2C=CC1C1CCC2N(C)C1=O (stereo not drawn),> 100 µM (inactive),> 100 µM (inactive),> 100 µM (inactive),> 100 µM (inactive),> 100 µM (inactive),> 100 µM (inactive),> 100 µM (inactive),> 100 µM (inactive),,> 100 µM (inactive),> 100 µM (inactive),> 100 µM (inactive),> 100 µM (inactive),,> 100 µM (inactive),> 100 µM (inactive),> 100 µM (inactive),> 100 µM (inactive),> 100 µM (inactive)
Cn1c(=O)cc2[nH]c3ccccc3n2c1=O,61.7 µM (inactive),> 100 µM (inactive),> 100 µM (inactive),> 100 µM (inactive),> 100 µM (inactive),> 100 µM (inactive),> 100 µM (inactive),> 100 µM (inactive),> 100 µM (inactive),42.8 µM (inactive),49.3 µM (inactive),25.5 µM (inactive),24 µM (inactive),69.7 µM (inactive),> 100 µM (inactive),86.5 µM (inactive),72.9 µM (inactive),,27 µM (inactive)
COc1ccc2c(c1)c(Cc1c(C)n(C)c3ccc(OC)cc13)c(C)n2C,> 100 µM (inactive),> 100 µM (inactive),> 100 µM (inactive),> 100 µM (inactive),> 100 µM (inactive),> 100 µM (inactive),> 100 µM (inactive),> 100 µM (inactive),> 100 µM (inactive),> 100 µM (inactive),> 100 µM (inactive),> 100 µM (inactive),86.1 µM (inactive),> 100 µM (inactive),> 100 µM (inactive),> 100 µM (inactive),> 100 µM (inactive),34 µM (inactive),> 100 µM (inactive)
S=C1SCC2CCCN12 (stereo not drawn),> 100 µM (inactive),> 100 µM (inactive),> 100 µM (inactive),> 100 µM (inactive),,> 100 µM (inactive),> 100 µM (inactive),> 100 µM (inactive),> 100 µM (inactive),> 100 µM (inactive),> 100 µM (inactive),> 100 µM (inactive),> 100 µM (inactive),> 100 µM (inactive),> 100 µM (inactive),> 100 µM (inactive),> 100 µM (inactive),> 100 µM (inactive),> 100 µM (inactive)
Cn1cnc([N+](=O)[O-])c1Sc1nc2ccccc2o1,0.389 µM (active),4.24 µM (inactive),26.3 µM (inactive),16.6 µM (inactive),10.2 µM (inactive),8.32 µM (inactive),14.2 µM (inactive),3.45 µM (inactive),2.49 µM (inactive),3.08 µM (inactive),3.44 µM (inactive),3.01 µM (inactive),14 µM (inactive),11.5 µM (inactive),12.4 µM (inactive),13.1 µM (inactive),6.35 µM (inactive),1.8 µM (inactive),4.35 µM (inactive)
Nc1nc2[nH]cnc2c(=O)[nH]1,> 100 µM (inactive),> 100 µM (inactive),> 100 µM (inactive),90.6 µM (inactive),> 100 µM (inactive),> 100 µM (inactive),> 100 µM (inactive),> 100 µM (inactive),> 100 µM (inactive),> 100 µM (inactive),> 100 µM (inactive),> 100 µM (inactive),> 100 µM (inactive),> 100 µM (inactive),> 100 µM (inactive),> 100 µM (inactive),> 100 µM (inactive),> 100 µM (inactive),> 100 µM (inactive)
COc1ccc(/C(Cl)=C(\C=O)c2ccc([N+](=O)[O-])cc2)cc1,34.9 µM (inactive),6.97 µM (inactive),13.2 µM (inactive),5.35 µM (inactive),21.8 µM (inactive),20.5 µM (inactive),> 100 µM (inactive),2.37 µM (inactive),,3.27 µM (inactive),4.57 µM (inactive),20 µM (inactive),13.3 µM (inactive),18.5 µM (inactive),7.67 µM (inactive),5.6 µM (inactive),11.8 µM (inactive),4.36 µM (inactive),17.5 µM (inactive)
O=C1/C(=C/c2ccc(Cl)cc2)CCC1CCN1CCOCC1 (stereo not drawn),> 100 µM (inactive),75.7 µM (inactive),> 100 µM (inactive),> 100 µM (inactive),> 100 µM (inactive),54.3 µM (inactive),> 100 µM (inactive),23.8 µM (inactive),26.1 µM (inactive),56.4 µM (inactive),32.8 µM (inactive),57 µM (inactive),72.3 µM (inactive),60.4 µM (inactive),> 100 µM (inactive),> 100 µM (inactive),> 100 µM (inactive),,37.8 µM (inactive)
Cc1cc(=O)cc2sc3c(C)cccc3nc1-2,41.9 µM (inactive),22.4 µM (inactive),35 µM (inactive),69.5 µM (inactive),,11.5 µM (inactive),49.9 µM (inactive),19.9 µM (inactive),22.9 µM (inactive),12.2 µM (inactive),35.1 µM (inactive),83.6 µM (inactive),17.6 µM (inactive),49.1 µM (inactive),,53.6 µM (inactive),21.8 µM (inactive),25.1 µM (inactive),15.8 µM (inactive)
